The text below walks through data of ChEMBL document CHEMBL1201862, “PubChem BioAssay data set” (2004).

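In this assay, cells in 96-well plates receive the compound at five concentrations for 48 hours. Endpoints are linearly interpolated between the surrounding concentrations. GI50: concentration for 50% inhibition of growth.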 Activity calls are given as the source filed them. Cut-off read from the data, not from the text of the source: active = GI50 up to about 1.1 µM and inactive = higher.

What all share (experiment): NCI anticancer screen, dose series, 48 h
Assay [1] concerns HCC 2998.
Assay [2] concerns KM12.
Assay [3] has as its system MDA-N.
The subject of assay [4] is Malme-3M.
For assay [5], the system named is OVCAR-8.
Assay [6] relates to MDA-MB-435.
Assay [7] concerns SK-OV-3.
For assay [8], the system named is RXF 393.
The subject of assay [9] is LOX IMVI.
The test system of assay [10] is SK-MEL-5.
Assay [11] relates to SF-539.
Assay [12] relates to TK-10.
Assay [13] has as its system HT-29.
Assay [14] has as its system COLO 205.
For assay [15], the system named is SF-268.
The subject of assay [16] is NCI-H23.
The test system of assay [17] is SF-295.
Assay [18] concerns A498.
Assay [19] has as its system SK-MEL-2.

`O=C1C=CC[C@H](/C=C/C[C@@H](O)C[C@H](O)/C=C/c2ccccc2)O1`: the GI50 in [1] is 2.28 µM (inactive); in assay [2] it was 12.3 µM (inactive); in assay [3], 12.4 µM (inactive); in assay [4] it was 14.9 µM (inactive); in assay [5], 14.4 µM (inactive); in assay [6], 11.3 µM (inactive). The GI50 in assay [7] was 15 µM (inactive); in assay [8] it was 6.89 µM (inactive); in [9], 2.92 µM (inactive); in assay [10] it was 13.7 µM (inactive); in [11], 9.89 µM (inactive); in assay [12], 11.7 µM (inactive). Also, the GI50 in assay [13] was 11.4 µM (inactive); in assay [14] it was 7.87 µM (inactive); in assay [15] it was 21.8 µM (inactive); in assay [16] it was 11.3 µM (inactive); in [17], 15.7 µM (inactive); in [18] it was 14.1 µM (inactive). Besides, the GI50 in assay [19] was 12.3 µM (inactive).

Take `N#CCc1nc(Cc2ccccc2)n[nH]1`: the GI50 in assay [1], in assay [2], in assay [3], in assay [4], in assay [5] and in assay [6] was > 100 µM (inactive) throughout. For the same molecule, the GI50 in [7], in assay [8], in [9], in assay [10], in assay [11] and in assay [12] was > 100 µM (inactive) in each case. For the same molecule, the GI50 in assay [13], in assay [14], in assay [15], in assay [16], in [17] and in assay [18] was > 100 µM (inactive) in each case. For the same molecule, the GI50 in assay [19] is > 100 µM (inactive).

Consider `Cn1cnc2c1c(=O)n(CCNCCO)c(=O)n2C`, for which the GI50 in assay [1], in assay [2], in assay [3], in assay [4], in assay [5] and in assay [6] was > 100 µM (inactive) each time. For the same molecule, the GI50 in assay [7], in assay [8], in assay [9], in assay [10], in assay [11] and in assay [12] was > 100 µM (inactive) in each case. Besides, the GI50 in assay [13], in assay [14], in assay [15], in assay [16], in assay [17] and in assay [18] was > 100 µM (inactive) throughout. The GI50 in assay [19] is > 100 µM (inactive).

For the molecule `CN(C)CCNc1ccc2c(=O)n(CCN(C)C)c(=O)n3c4ccccc4c(=O)c1c23`, the GI50 in assay [1] is < 0.0164 µM (active); in assay [2] it was 0.116 µM (active); in assay [3], 0.133 µM (active); in assay [4] it was 0.18 µM (active); in assay [5], 0.0711 µM (active); in assay [6], 0.145 µM (active). Also, the GI50 in assay [7] is < 0.0392 µM (active); in [8], 0.109 µM (active); in [9], 0.0624 µM (active); in assay [10], 0.0427 µM (active); in assay [11], 0.0321 µM (active); in assay [12], 0.392 µM (active). The GI50 in assay [13] is 0.0502 µM (active); in assay [14], 0.17 µM (active); in assay [15], 0.0512 µM (active); in assay [16] it was 0.0505 µM (active); in assay [17] it was < 0.0243 µM (active); in assay [18], 0.157 µM (active). Moreover, in [19], the GI50 is 0.399 µM (active).

In the case of `COc1ccc(/C(CC2OC(=O)c3ccccc32)=N\NC(=O)C[N+](C)(C)C)cc1` (configuration not stated), the GI50 was 16.3 µM (inactive) in assay [1]; 21.2 µM (inactive) in assay [2]; 38.2 µM (inactive) in [3]; 31.1 µM (inactive) in assay [4]; 19.5 µM (inactive) in assay [5]; 24.3 µM (inactive) in assay [6]. Besides, the GI50 is 38.8 µM (inactive) in assay [7]; 25.4 µM (inactive) in assay [8]; 24.1 µM (inactive) in assay [9]; 22.5 µM (inactive) in [10]; 31.2 µM (inactive) in [11]; 33.4 µM (inactive) in assay [12]. The GI50 in [13] is 19.2 µM (inactive); in assay [14], 27.5 µM (inactive); in assay [15], 30.5 µM (inactive); in [16], 17.5 µM (inactive); in [17], 47.5 µM (inactive); in assay [18], 24.3 µM (inactive). Also, the GI50 in assay [19] was 23.9 µM (inactive).

Take `CC1CC(C)[C@H](O)C([C@H](O)CC2CC(=O)N(C)C(=O)C2)C1` (some centres not stated): the GI50 in assay [1], in assay [2], in assay [3], in assay [4], in assay [5] and in [6] was > 100 µM (inactive) in each case. The GI50 in [7], in assay [8], in assay [9], in assay [10], in assay [11] and in [12] was > 100 µM (inactive) in each case. Besides, the GI50 in assay [13] was > 100 µM (inactive); in assay [14] it was > 100 µM (inactive); in assay [15], > 100 µM (inactive); in assay [16], > 100 µM (inactive); in assay [17], 82.4 µM (inactive); in assay [18] it was > 100 µM (inactive). Besides, in assay [19], the GI50 is > 100 µM (inactive).

Turning to `S=C1SSC2N=CC=CC12` (configuration not stated), the GI50 in assay [1] is 24.7 µM (inactive); in assay [2], 17.3 µM (inactive); in assay [3], > 100 µM (inactive); in assay [4], 56 µM (inactive); in assay [5] it was > 100 µM (inactive); in assay [6], 17.3 µM (inactive). The GI50 in [7] is > 100 µM (inactive); in assay [8], 46.5 µM (inactive); in [9], 31.3 µM (inactive); in assay [10], 43.3 µM (inactive); in assay [11], > 100 µM (inactive); in assay [12], > 100 µM (inactive). The GI50 in [13] is > 100 µM (inactive); in assay [14], > 100 µM (inactive); in assay [15] it was > 100 µM (inactive); in [16], > 100 µM (inactive); in assay [17], 84.9 µM (inactive); in assay [18] it was 29.9 µM (inactive). Besides, the GI50 in assay [19] was > 100 µM (inactive).

Consider `O=C1c2scnc2-c2nccc3c2c1nc1ccccc13` [KUANONIAMINE A], for which the GI50 in [1] was 1.15 µM (inactive); in [2], 1.41 µM (inactive); in assay [3], 0.196 µM (active); in [4], 0.684 µM (active); in assay [5], 0.226 µM (active); in [6] it was 0.191 µM (active). In addition, the GI50 in [7] was 2.54 µM (inactive); in assay [8] it was 1.77 µM (inactive); in assay [9], 0.172 µM (active); in assay [10] it was 0.0412 µM (active); in assay [11], 0.232 µM (active); in assay [12], 1.46 µM (inactive). Also, the GI50 in assay [13] was 2.55 µM (inactive); in assay [14], 1.31 µM (inactive); in assay [15], 1.78 µM (inactive); in [16], 0.223 µM (active); in assay [17] it was 1.58 µM (inactive); in assay [18], 1.26 µM (inactive). Moreover, the GI50 in [19] is 1.01 µM (active).
